Laboratory results reported in PMC9395504 (Investigational New Drugs, 2022).

How the values were obtained:
[1] = test system: TP53-WT patient-derived melanoma xenografts; conditions: 50 mg/kg, alone or combined with dabrafenib and trametinib; cited from earlier work
[2] = test system: TP53-WT cancer xenograft models; conditions: daily oral administration; cited from earlier work
[3] = Safety: adverse events by NCI-CTCAE v4.0, phase 1 study Part 1; assay type: in vivo, human
Experimental: We defined the dose-limiting toxicity (DLT) period as the first 28 days of each dose-escalation cohort’s treatment cycle (DLT window). […] Non-hematologic DLTs included grade ≥3 nausea, vomiting, or diarrhea enduring >48 hours despite standard medical management, grade 3 fatigue persisting >7 days or grade 4 fatigue, any grade ≥3 metabolic laboratory abnormalities that are not controlled within 48 hours by standard medical management.

[4] = All patients, N=31, attributed to AMG 232 only
[5] = All patients, N=31, attributed to any drug

CC(C)[C@@H](CS(=O)(=O)C(C)C)N1C(=O)[C@@](C)(CC(=O)O)C[C@H](c2cccc(Cl)c2)[C@H]1c1ccc(Cl)cc1 [AMG 232]
antitumor activity [1]: demonstrated antitumor activity
effective doses, dose-dependent antitumor activity [2]: 9.1 to 78 mg/kg
Share of treatment-emergent AEs attributable to AMG 232 ([3]; 240 of 614 AEs, in 30 subjects): 39%
AEs Grade 1 ([3]; All patients, N=31): 31 (100) N (%)
AEs Grade 2 ([3]; All patients, N=31): 30 (97) N (%)
AEs Grade 3 ([3]; All patients, N=31): 25 (81) N (%)
AEs Grade 4 ([3]; All patients, N=31): 2 (6) N (%)
AEs leading to AMG 232 d/c ([3]; All patients, N=31): 7 (23) N (%)
AEs leading to dabraf d/c ([3]; All patients, N=31): 2 (6) N (%)
Serious AE Adrenal insufficiency ([3]; All patients, N=31): 2 (6) N (%)
Serious AE Anemia ([3]; All patients, N=31): 1 (3) N (%)
Serious AE Cellulitis ([3]; All patients, N=31): 2 (6) N (%)
Serious AE Dehydration ([3]; All patients, N=31): 3 (10) N (%)
Serious AE Diarrhea ([3]; All patients, N=31): 4 (13) N (%)
Serious AE Fatigue ([3]; All patients, N=31): 1 (3) N (%)
Serious AE Hypotension ([3]; All patients, N=31): 1 (3) N (%)
Serious AE Nausea ([3]; All patients, N=31): 5 (16) N (%)
Serious AE Peripheral Edema ([3]; All patients, N=31): 1 (3) N (%)
Serious AE Pulmonary embolism ([3]; All patients, N=31): 5 (16) N (%)
Serious AE Pyrexia ([3]; All patients, N=31): 5 (16) N (%)
Serious AE Seizure ([3]; All patients, N=31): 3 (10) N (%)
Serious AE Thrombocytopenia ([3]; All patients, N=31): 1 (3) N (%)
Serious AE Vomiting ([3]; All patients, N=31): 5 (16) N (%)
AE AST increased [3, 4]: 3 (10) N (%)
AE Abdominal pain [3, 4]: 5 (16) N (%)
AE Adrenal insufficiency [3, 4]: 0 N (%)
AE Anemia [3, 4]: 5 (16) N (%)
AE Cellulitis [3, 4]: 0 N (%)
AE Chills [3, 4]: 2 (6) N (%)
AE Cough [3, 4]: 2 (6) N (%)
AE Decreased appetite [3, 4]: 13 (42) N (%)
AE Dehydration [3, 4]: 1 (3) N (%)
AE Dermatitis acneiform [3, 4]: 3 (10) N (%)
AE Diarrhea [3, 4]: 24 (77) N (%)
AE Dizziness [3, 4]: 3 (10) N (%)
AE Dry mouth [3, 4]: 3 (10) N (%)
AE Dysgeusia [3, 4]: 4 (13) N (%)
AE Dyspepsia [3, 4]: 3 (10) N (%)
AE Fatigue [3, 4]: 23 (74) N (%)
AE Headache [3, 4]: 3 (10) N (%)
AE Hypertension [3, 4]: 2 (6) N (%)
AE Hypotension [3, 4]: 1 (3) N (%)
AE Lipase increased [3, 4]: 4 (13) N (%)
AE Malaise [3, 4]: 4 (13) N (%)
AE Nausea [3, 4]: 27 (87) N (%)
AE Neutropenia [3, 4]: 3 (10) N (%)
AE Peripheral Edema [3, 4]: 1 (3) N (%)
AE Pruritus [3, 4]: 0 N (%)
AE Pulmonary embolism [3, 4]: 2 (6) N (%)
AE Pyrexia [3, 4]: 2 (6) N (%)
AE Rash [3, 4]: 2 (6) N (%)
AE Seizure [3, 4]: 0 N (%)
AE Thrombocytopenia [3, 4]: 3 (10) N (%)
AE Vomiting [3, 4]: 21 (68) N (%)
AE AST increased [3, 5]: 6 (19) N (%)
AE Abdominal pain [3, 5]: 6 (19) N (%)
AE Adrenal insufficiency [3, 5]: 2 (6) N (%)
AE Anemia [3, 5]: 9 (29) N (%)
AE Cellulitis [3, 5]: 2 (6) N (%)
AE Chills [3, 5]: 8 (26) N (%)
AE Cough [3, 5]: 8 (26) N (%)
AE Decreased appetite [3, 5]: 16 (52) N (%)
AE Dehydration [3, 5]: 9 (29) N (%)
AE Dermatitis acneiform [3, 5]: 14 (45) N (%)
AE Diarrhea [3, 5]: 27 (87) N (%)
AE Dizziness [3, 5]: 5 (16) N (%)
AE Dry mouth [3, 5]: 5 (16) N (%)
AE Dysgeusia [3, 5]: 6 (19) N (%)
AE Dyspepsia [3, 5]: 4 (13) N (%)
AE Fatigue [3, 5]: 25 (81) N (%)
AE Headache [3, 5]: 15 (48) N (%)
AE Hypertension [3, 5]: 8 (26) N (%)
AE Hypotension [3, 5]: 8 (26) N (%)
AE Lipase increased [3, 5]: 5 (16) N (%)
AE Malaise [3, 5]: 4 (13) N (%)
AE Nausea [3, 5]: 28 (90) N (%)
AE Neutropenia [3, 5]: 5 (16) N (%)
AE Peripheral Edema [3, 5]: 13 (42) N (%)
AE Pruritus [3, 5]: 11 (35) N (%)
AE Pulmonary embolism [3, 5]: 5 (16) N (%)
AE Pyrexia [3, 5]: 11 (35) N (%)
AE Rash [3, 5]: 7 (23) N (%)
AE Seizure [3, 5]: 3 (10) N (%)
AE Thrombocytopenia [3, 5]: 7 (23) N (%)
AE Vomiting [3, 5]: 22 (71) N (%)
AMG 232-related AE abdominal pain, patients ([3]; all 31 patients): 16%
AMG 232-related AE anemia, patients ([3]; all 31 patients): 16%
AMG 232-related AE decreased appetite, patients ([3]; all 31 patients): 42%
AMG 232-related AE diarrhea, patients ([3]; all 31 patients): 77%
AMG 232-related AE dysgeusia, patients ([3]; all 31 patients): 13%
AMG 232-related AE fatigue, patients ([3]; all 31 patients): 74%
AMG 232-related AE increased lipase, patients ([3]; all 31 patients): 13%
AMG 232-related AE malaise, patients ([3]; all 31 patients): 13%
AMG 232-related AE nausea, patients ([3]; all 31 patients): 87%
AMG 232-related AE vomiting, patients ([3]; all 31 patients): 68%
Patients with serious AMG 232-related AEs ([3]; all 31 patients): 8 patients
Serious AMG 232-related AE diarrhea, patients ([3]; all 31 patients): 10%
Serious AMG 232-related AE nausea, patients ([3]; all 31 patients): 13%
Serious AMG 232-related AE pulmonary embolism, patients ([3]; all 31 patients): 6.5%
Serious AMG 232-related AE vomiting, patients ([3]; all 31 patients): 10%
SAE diarrhea, patients ([3]; all 31 patients, AMG 232 + T±D): 13%
SAE nausea, patients ([3]; all 31 patients, AMG 232 + T±D): 16%
SAE vomiting, patients ([3]; all 31 patients, AMG 232 + T±D): 16%
Treatment-emergent AE acneiform dermatitis, patients ([3]; all 31 patients, AMG 232 + T±D): 45%
Treatment-emergent AE decreased appetite, patients ([3]; all 31 patients, AMG 232 + T±D): 52%
Treatment-emergent AE diarrhea, patients ([3]; all 31 patients, AMG 232 + T±D): 87%
Treatment-emergent AE fatigue, patients ([3]; all 31 patients, AMG 232 + T±D): 81%
Treatment-emergent AE headache, patients ([3]; all 31 patients, AMG 232 + T±D): 48%
Treatment-emergent AE nausea, patients ([3]; all 31 patients, AMG 232 + T±D): 90%
Treatment-emergent AE peripheral edema, patients ([3]; all 31 patients, AMG 232 + T±D): 42%
Treatment-emergent AE pruritus, patients ([3]; all 31 patients, AMG 232 + T±D): 35.5%
Treatment-emergent AE pyrexia, patients ([3]; all 31 patients, AMG 232 + T±D): 35.5%
Treatment-emergent AE vomiting, patients ([3]; all 31 patients, AMG 232 + T±D): 71%
Patients with serious AEs (SAEs) ([3]; all 31 patients, AMG 232 + T±D, 24 patients): 77%
Patients withdrawn/discontinued from AMG 232 due to AEs ([3]; all 31 patients, seven patients): 23%
